Common to all, as to experiment: NCI-60 cell line screen, 48 h
Assay [1] relates to 786-0.
Assay [2] concerns HCT-15.
Assay [3] relates to SF-539.
Assay [4] has as its system COLO 205.
Assay [5] concerns NCI-H460.
The test system of assay [6] is A549.
The subject of assay [7] is EKVX.
Assay [8] deals with SR.
Assay [9] concerns KM-20L2.
Assay [10] has as its system SK-MEL-28.
Assay [11] relates to UO-31.
Assay [12] concerns CCRF-CEM.
For assay [13], the system named is NCI-H522.
Assay [14] concerns PC-3.
The subject of assay [15] is MDA-N.
The subject of assay [16] is BT-549.
Assay [17] has as its system MDA-MB-231.
In assay [18] the test system is MCF7.
The subject of assay [19] is NCI/ADR-RES.
Assay [20] has as its system T47D.

The values that follow come from ChEMBL document CHEMBL1201862, “PubChem BioAssay data set” (2004).

SMILES strings stand for the structures.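 Test compounds were applied to cells in 96-well plates for 48 hours at 5 doses. GI50: concentration for 50% inhibition of growth.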 The source made the active and inactive calls. No stated cut-off is given here; in the data, active = GI50 up to about 1.1 µM and inactive = higher.

Take `C=C(C)CC(C(=O)O)c1ccc(C)cc1` (stereo not given): the GI50 was > 100 µM (inactive) in assay [1]; above 100 µM in [2]; > 100 µM (inactive) in [3]; > 100 µM (inactive) in assay [4]; > 100 µM (inactive) in [5]; > 100 µM (inactive) in assay [6]. In addition, the GI50 in assay [7], in assay [8], in assay [9] and in [10] was > 100 µM (inactive) in each case.
Take `NC(=O)/N=C1\NC(Cc2ccccc2)C(=O)N1Cc1ccccc1` (stereo not given): the GI50 in assay [1] was > 100 µM (inactive); in [2] it was above 100 µM; in [3], > 100 µM (inactive); in assay [4] it was > 100 µM (inactive); in assay [11], > 100 µM (inactive); in [5] it was > 100 µM (inactive). Besides, the GI50 in [6], in assay [7], in assay [12], in [8], in assay [9] and in [10] was > 100 µM (inactive) each time.
On to `Cc1c2ncccc2c(C)c2c1[nH]c1ccccc12`, for which the GI50 is 9.38 µM (inactive) in assay [1]; 7.24 µM in [2]; 13.2 µM (inactive) in assay [3]; 13.1 µM (inactive) in assay [4]; > 10 µM (inactive) in [11]; 5.18 µM (inactive) in assay [5]. Moreover, the GI50 in [6] was 6.78 µM (inactive); in assay [13], 13 µM (inactive); in [7], 16 µM (inactive); in [12], 10.2 µM (inactive); in [9], 7.11 µM (inactive); in [10], 15.6 µM (inactive).
With `O=C(NNC(=O)c1ccccc1Cl)c1ccccc1O`, the GI50 in [14] was 40.4 µM (inactive); in assay [1] it was 87.1 µM (inactive); in [2] it was 21.7 µM; in assay [15] it was > 100 µM (inactive); in [16] it was > 100 µM (inactive); in assay [3], > 100 µM (inactive). The GI50 was 35.2 µM (inactive) in assay [4]; > 100 µM (inactive) in assay [17]; 41.4 µM (inactive) in [18]; 27.7 µM (inactive) in assay [11]; 23.6 µM (inactive) in assay [5]; 56.2 µM (inactive) in [6]. For the same molecule, the GI50 in assay [13] is 12.2 µM (inactive); in assay [7], 16.3 µM (inactive); in assay [12] it was 44.1 µM (inactive); in assay [19], 20.3 µM (inactive); in assay [8], 29.9 µM (inactive); in [20], > 100 µM (inactive). Also, in assay [10], the GI50 is > 100 µM (inactive).
As for `COc1cc(-c2cc(=O)c3cc(C)c(C)c(C(=O)O)c3o2)cc(OC)c1OC`, the GI50 in assay [1] is > 100 µM (inactive); in [2], above 100 µM; in assay [3] it was > 100 µM (inactive); in [4], > 100 µM (inactive); in assay [11], > 100 µM (inactive); in assay [5], > 100 µM (inactive). Moreover, the GI50 in assay [6] is > 100 µM (inactive); in [13] it was 67.6 µM (inactive); in assay [7], > 100 µM (inactive); in [12], > 100 µM (inactive); in assay [9], > 100 µM (inactive); in [10], > 100 µM (inactive).
Take `O=C(c1ccccc1)c1nnc(C(=O)c2ccccc2)nn1`: the GI50 is 179 µM (inactive) in [1]; above 344 µM in assay [2]; > 344 µM (inactive) in assay [3]; > 344 µM (inactive) in [4]; > 344 µM (inactive) in assay [11]; > 344 µM (inactive) in assay [5]. Also, the GI50 in assay [6] was > 344 µM (inactive); in assay [13], 134 µM (inactive); in [7], > 344 µM (inactive); in assay [12], 265 µM (inactive); in assay [8] it was 4.45 µM (inactive); in assay [9] it was > 344 µM (inactive). The GI50 in assay [10] was > 344 µM (inactive).
For `CCOc1cccc2cccnc12`, the GI50 in assay [1], in assay [3], in assay [4], in assay [11], in assay [5] and in [6] was > 100 µM (inactive) in each case. Also, the GI50 in assay [13], in [7], in [12], in [9] and in assay [10] was > 100 µM (inactive) each time.
For `O=Cc1cc2sc(C=O)cc2s1`, the GI50 is > 100 µM (inactive) in assay [1]; above 100 µM in assay [2]; > 100 µM (inactive) in assay [3]; > 100 µM (inactive) in [4]; > 100 µM (inactive) in assay [11]; > 100 µM (inactive) in assay [5]. In addition, the GI50 is > 100 µM (inactive) in assay [6]; 93.3 µM (inactive) in assay [13]; > 100 µM (inactive) in assay [7]; > 100 µM (inactive) in assay [12]; > 100 µM (inactive) in assay [8]; > 100 µM (inactive) in assay [9].
With `CC1=NC(C(C)C)C(=O)O1` (stereo not given), the GI50 was 58.1 µM (inactive) in [1]; 34.4 µM in [2]; > 100 µM (inactive) in assay [3]; 72.3 µM (inactive) in assay [4]; > 100 µM (inactive) in [11]; > 100 µM (inactive) in assay [5]. The GI50 in assay [13], in assay [7], in [12], in assay [9] and in [10] was > 100 µM (inactive) in each case.
`Cc1ccc2ccc(-c3ccccc3)c3c2c1C(=O)c1ccccc1C3=O`: the GI50 in assay [1] was 36.5 µM (inactive); in assay [3], 54.3 µM (inactive); in [4] it was > 100 µM (inactive); in [11], > 100 µM (inactive); in assay [6], > 100 µM (inactive); in assay [13], 36.1 µM (inactive). Besides, the GI50 in assay [7], in assay [12], in [8], in assay [9] and in [10] was > 100 µM (inactive) in each case.
As to `CN(C)CCC(CCN(C)C)=NO`, the GI50 in assay [1] is > 100 µM (inactive); in assay [2] it was above 100 µM; in assay [3], > 100 µM (inactive); in [4], > 100 µM (inactive); in assay [11] it was > 100 µM (inactive); in [5], > 100 µM (inactive). Further, the GI50 in assay [6], in [13], in assay [7], in assay [12], in assay [9] and in assay [10] was > 100 µM (inactive) each time.
As for `CN1C(c2ccccc2)CC(=O)C(N)C1c1ccccc1` (stereo not given), the GI50 in [1] is 31.3 µM (inactive); in [2] it was 26.1 µM; in assay [3], 42.1 µM (inactive); in assay [4], 18.5 µM (inactive); in assay [11], 25.5 µM (inactive); in assay [5], 22.2 µM (inactive). The GI50 in assay [6] is 38.7 µM (inactive); in assay [13] it was 17 µM (inactive); in [7], > 53 µM (inactive); in assay [12], 25.2 µM (inactive); in assay [8] it was 25 µM (inactive); in assay [9] it was 34.8 µM (inactive). The GI50 in [10] is 18.6 µM (inactive).
`CSC1=NC=CCN1C`: the GI50 in assay [1] is > 100 µM (inactive); in assay [2], above 100 µM; in assay [4], > 100 µM (inactive); in assay [11] it was > 100 µM (inactive); in assay [5], > 100 µM (inactive); in assay [6], > 100 µM (inactive). Moreover, the GI50 in assay [13], in assay [7], in assay [12], in assay [9] and in assay [10] was > 100 µM (inactive) in each case.
As for `CCCCCCCCC(=O)CCCCCCCCC(=O)O`, the GI50 in [1] is 22.9 µM (inactive); in [3] it was 19.7 µM (inactive); in assay [4] it was 21.8 µM (inactive); in [11], 33.3 µM (inactive); in assay [5] it was 21.3 µM (inactive); in [6] it was 19.7 µM (inactive). Besides, the GI50 in [13] was 25.5 µM (inactive); in assay [7], 28.4 µM (inactive); in assay [12], 28.6 µM (inactive); in [8], 16.2 µM (inactive); in [9] it was 25.9 µM (inactive); in assay [10], 36.1 µM (inactive).
As for `COC1CCCc2c(OC(C)=O)ccc(OC(C)=O)c21` (stereo not given), the GI50 in [1] is > 100 µM (inactive); in assay [2], above 100 µM; in assay [11], > 100 µM (inactive); in assay [6], > 100 µM (inactive); in assay [8], > 100 µM (inactive); in assay [9], > 100 µM (inactive). For the same molecule, the GI50 in assay [10] is > 100 µM (inactive).
With `CC(=O)OCC12CC(CC1OC(C)=O)c1ccccc12` (stereo not given), the GI50 is > 100 µM (inactive) in assay [1]; above 100 µM in [2]; > 100 µM (inactive) in assay [4]; > 100 µM (inactive) in [11]; > 100 µM (inactive) in assay [5]; > 100 µM (inactive) in assay [6]. In addition, the GI50 in assay [12], in [8], in assay [9] and in assay [10] was > 100 µM (inactive) each time.
Take `CCOC(=O)C(Cc1cn(S(=O)(=O)c2ccccc2)c2ccccc12)(NC(C)=O)C(=O)OCC`: the GI50 in assay [1] was 72.8 µM (inactive); in assay [2], 42.5 µM; in assay [3], 30.3 µM (inactive); in assay [4], 25 µM (inactive); in assay [11], 17.1 µM (inactive); in [5], 32.7 µM (inactive). Further, the GI50 in [6] is 36.2 µM (inactive); in assay [13], 15.3 µM (inactive); in assay [12] it was 25.1 µM (inactive); in assay [8], 15.2 µM (inactive); in assay [9], 46.6 µM (inactive); in assay [10] it was 42.6 µM (inactive).
